One test concerns the target KRAS G12S (Homo sapiens (Human), UniProt P01116+P62937, G12S). Put plainly: Ras-Raf (BRAF RBD) disruption / FRET / MOA assay, KRAS G12S. In kind it is biochemical. As to conditions: Ras-Raf disruption/FRET/MOA assay; class symbols; read-out: KRAS G12S FRET data IC50. The method in brief:
(§1)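 TR-FRET read-out: a drop in ratio relative to DMSO wells marks disruption of the Ras:RAF complex, reported as IC50. Compounds (3-fold series, 10 points, top 30 μM final) incubated 3 h at 25° C before Eu-anti-His 10 nM and APC-anti-GST 50 nM, 1.5 h more.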

For another test, the target named is NRAS G12C (Homo sapiens (Human), UniProt P01111+P62937, G12C). Put plainly: Ras-Raf (BRAF RBD) disruption / FRET / MOA assay, NRAS G12C. In kind it is biochemical. As to conditions: read-out: IC50* NRAS G12C FRET data. The method in brief: as §1
A further test concerns the target NRAS Q61K (Homo sapiens (Human), UniProt P01111+P62937, Q61K). Put plainly: Ras-Raf (BRAF RBD) disruption / FRET / MOA assay, NRAS Q61K. As to conditions: NRAS Q61K; Ras-Raf disruption/FRET/MOA assay; read-out: IC50* NRAS Q61K FRET data. It counts as biochemical. The method in brief: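 Compounds were tested as a 10-point 3-fold dilution series from 30 μM final for their ability to drive ternary complex formation between nucleotide-loaded Ras and cyclophilin A, displacing the BRAF RBD. After 3 h at 25° C., anti-His Eu-W1024 (10 nM) and anti-GST allophycocyanin (50 nM) were added for 1.5 h. A TR-FRET ratio decrease versus DMSO gave IC50.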

Test [1] concerns NCI-H358 cells (K-Ras G12C). Put plainly: Potency assay: pERK in NCI-H358 cells. As to conditions: Homo sapiens, NCI-H358; H358 KRAS G12C; read-out: pERK EC50. It counts as cell-based, human. The method in brief:
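pERK decrease read by AlphaLISA SureFire p-ERK1/2 or In-Cell Western after 4 h compound exposure at 37 °C, 5% CO2.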

IC50 and EC50 data for 19 molecules are collected here from patent publication US11566007B2, “Ras inhibitors” (Revolution Medicines, Inc., priority 2019, dated 2023).

Chain of NRAS Q61K (P01111 whole entry Q61K): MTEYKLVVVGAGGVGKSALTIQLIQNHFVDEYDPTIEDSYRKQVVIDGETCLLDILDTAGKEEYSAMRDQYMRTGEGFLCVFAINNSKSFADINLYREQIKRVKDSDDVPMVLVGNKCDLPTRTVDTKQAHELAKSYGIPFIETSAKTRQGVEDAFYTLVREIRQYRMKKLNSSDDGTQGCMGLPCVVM
Chain of NRAS Q61K (P62937 whole entry): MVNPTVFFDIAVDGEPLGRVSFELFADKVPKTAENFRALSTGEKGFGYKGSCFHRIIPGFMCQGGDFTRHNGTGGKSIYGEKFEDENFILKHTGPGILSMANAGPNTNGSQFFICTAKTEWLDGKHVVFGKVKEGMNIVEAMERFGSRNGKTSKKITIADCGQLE
Chain of KRAS G12S (P01116-2 other isoform, or with tags, fused parts or gaps G12S): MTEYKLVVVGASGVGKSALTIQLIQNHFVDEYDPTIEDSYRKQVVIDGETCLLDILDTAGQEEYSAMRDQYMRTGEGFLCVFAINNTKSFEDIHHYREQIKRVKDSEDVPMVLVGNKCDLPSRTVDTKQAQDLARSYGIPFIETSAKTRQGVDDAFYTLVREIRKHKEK
Chain of KRAS G12S (P62937 whole entry): as the sequence (P62937 whole entry) above
Chain of NRAS G12C (P01111 whole entry G12C): as the sequence (P01111 whole entry Q61K) above, with G12C, K61Q counted along it
Chain of NRAS G12C (P62937 whole entry): as the sequence (P62937 whole entry) above

As for `CCn1c(-c2cccnc2[C@H](C)OC)c2c3cc(ccc31)-c1csc(n1)C[C@H](NC(=O)[C@H](C(C)C)N(C)C(=O)N1CCC3(CC1)CN(C(=O)/C=C/CF)C3)C(=O)N1CCC[C@H](N1)C(=O)OCC(C)(C)C2` (atropisomer, axis not shown) [Example A622], the figures for the IC50 at KRAS G12S, at NRAS G12C and at NRAS Q61K were 100 to 1000 nM, 10 to 100 nM and 10 to 100 nM, respectively. Besides, the EC50 (commonly the concentration at which the effect is half-maximal) in test [1] was less than 5 µM.

Take `CCn1c(-c2cccnc2[C@H](C)OC)c2c3cc(ccc31)-c1csc(n1)C[C@H](NC(=O)[C@@H](F)COC1CN(C(=O)C#CC(C)(C)N(C)C)C1)C(=O)N1CCC[C@H](N1)C(=O)OCC(C)(C)C2` (atropisomer, axis not shown) [Example A626]: the IC50 (in general, the concentration that gives 50% inhibition) on KRAS G12S was 1000 to 10000 nM; on NRAS G12C, less than 10 nM; at NRAS Q61K, 1000 to 10000 nM. In test [1], the concentration giving a half-maximal response (EC50) is less than 5 µM.

In the case of `CO[C@@H](C)c1ncccc1-c1c2c3cc(ccc3n1CC(F)(F)F)N1CCO[C@@H](C[C@H](NC(=O)[C@H](C(C)C)N3CC[C@@]4(CCN(C(=O)C#CC(C)(C)N(C)C)C4)C3=O)C(=O)N3CCC[C@H](N3)C(=O)OCC(C)(C)C2)C1` (atropisomer, axis not shown) [Example A628], the figures for the IC50 at KRAS G12S, at NRAS G12C and at NRAS Q61K were 1000 to 10000 nM, less than 10 nM and more than 10000 nM, respectively. The EC50 in test [1] was less than 5 µM.

Consider `C=CC(=O)N(C)CCN1CCN(C(=O)N(C)[C@H](C(=O)N[C@H]2Cc3nc(cs3)-c3ccc4c(c3)c(c(-c3cccnc3[C@H](C)OC)n4CC)CC(C)(C)COC(=O)[C@@H]3CCCN(N3)C2=O)C(C)C)CC1` (atropisomer, axis not shown) [Example A630], for which the concentration for half-maximal inhibition (IC50) at KRAS G12S, at NRAS G12C and on NRAS Q61K was 100 to 1000 nM throughout. For the same molecule, the EC50 in test [1] was less than 5 µM.

Turning to `C=CC(=O)N(C)[C@H]1CN(C(=O)N(C)[C@H](C(=O)N[C@H]2Cc3nc(cs3)-c3ccc4c(c3)c(c(-c3cccnc3[C@H](C)OC)n4CC)CC(C)(C)COC(=O)[C@@H]3CCCN(N3)C2=O)C(C)C)C[C@H]1F` (atropisomer, axis not shown) [Example A631], the figures for the concentration for half-maximal inhibition (IC50) at KRAS G12S, on NRAS G12C and at NRAS Q61K were 100 to 1000 nM, 10 to 100 nM and 10 to 100 nM, respectively. The concentration for a half-maximal effect (EC50) in test [1] was less than 5 µM.

As to `C=CC(=O)N1CC[C@H](C(=O)N(C)[C@@H](CC(F)(F)F)C(=O)N[C@H]2Cc3cccc(c3)-c3ccc4c(c3)c(c(-c3cccnc3[C@H](C)OC)n4CC)CC(C)(C)COC(=O)[C@@H]3CCCN(N3)C2=O)C1` (atropisomer, axis not shown) [Example A639], the IC50 is 1000 to 10000 nM on KRAS G12S, 100 to 1000 nM on NRAS G12C and 1000 to 10000 nM at NRAS Q61K. The EC50 in test [1] was less than 5 µM.

Take `CCn1c(-c2cccnc2[C@H](C)OC)c2c3cc(ccc31)N1CCO[C@@H](C[C@H](NC(=O)[C@@H](COC3CCN(C(=O)C#CC(C)(C)N(C)C)CC3)C(C)C)C(=O)N3CCC[C@H](N3)C(=O)OCC(C)(C)C2)C1` (atropisomer, axis not shown) [Example A643, (2R)-2-(((1-(4-(dimethylamino)-4-methylpent-2-ynoyl)piperidin-4-yl)oxy)methyl)-N-((2^2S,6^3S,4S)-1^1-ethyl-1^2-(2-((S)-1-methoxyethyl)pyridin-3-yl)-10,10-dimethyl-5,7-dioxo-6^1,6^2,6^3,6^4,6^5,6^6-hexahydro-1^1H-8-oxa-2(4,2)-morpholina-1(5,3)-indola-6(1,3)-pyridazinacycloundecaphane-4-yl)-3-methylbutanamide]: the results for the IC50 on KRAS G12S, at NRAS G12C and on NRAS Q61K were more than 10000 nM, 10 to 100 nM and more than 10000 nM, respectively. In test [1], the EC50 is less than 5 µM.

With `CCn1c(-c2cccnc2[C@H](C)OC)c2c3cc(ccc31)-c1cccc(c1)C[C@H](NC(=O)[C@@H](COC1CN(C(=O)C#C[C@H]3COCCN3C)C1)C(C)C)C(=O)N1CCC[C@H](N1)C(=O)OCC(C)(C)C2` (atropisomer, axis not shown) [Example A644], the results for the IC50 at KRAS G12S, at NRAS G12C and on NRAS Q61K were more than 10000 nM, 10 to 100 nM and more than 10000 nM, respectively. In test [1], the EC50 is less than 5 µM.

Regarding `CCn1c(-c2cccnc2[C@H](C)OC)c2c3cc(ccc31)-c1cccc(c1)C[C@H](NC(=O)[C@@H](COC1CN(C(=O)C#C[C@@H]3OCCCN3C)C1)C(C)C)C(=O)N1CCC[C@H](N1)C(=O)OCC(C)(C)C2` (atropisomer, axis not shown) [Example A648], the 50% inhibitory concentration (IC50) on KRAS G12S is more than 10000 nM; at NRAS G12C it was 100 to 1000 nM; at NRAS Q61K, more than 10000 nM. In addition, in test [1], the EC50 is less than 5 µM.

Consider `CCn1c(-c2cccnc2[C@H](C)OC)c2c3cc(ccc31)-c1cnc(o1)C[C@H](NC(=O)[C@@H](COC1CN(C(=O)C#CC(C)(C)N(C)C)C1)C(C)C)C(=O)N1CCC[C@H](N1)C(=O)OCC(C)(C)C2` (atropisomer, axis not shown) [Example A649], for which the half-maximal inhibitory concentration (IC50) at KRAS G12S is more than 10000 nM; at NRAS G12C, 10 to 100 nM; at NRAS Q61K, more than 10000 nM. For the same molecule, the EC50 in test [1] is less than 5 µM.

As for `CCn1c(-c2cccnc2[C@H](C)OC)c2c3cc(ccc31)-c1csc(n1)C[C@H](NC(=O)[C@H](C(C)C)N(C)C(=O)N1CCC3(CC1)CN(C(=O)/C=C/CN(C)C)C3)C(=O)N1CCC[C@H](N1)C(=O)OCC(C)(C)C2` (atropisomer, axis not shown) [Example A650], the concentration for half-maximal inhibition (IC50) lay within 100 to 1000 nM at KRAS G12S, 10 to 100 nM on NRAS G12C and 10 to 100 nM at NRAS Q61K. For the same molecule, in test [1], the EC50 was less than 5 µM.

For the molecule `CCn1c(-c2cccnc2[C@H](C)OC)c2c3cc(ccc31)-c1csc(n1)C[C@H](NC(=O)[C@H](C(C)C)N(C)C(=O)N1CCC13CN(C(=O)C#CC(C)(C)N(C)C)C3)C(=O)N1CCC[C@H](N1)C(=O)OCC(C)(C)C2` (atropisomer, axis not shown) [Example A656], the half-inhibitory concentration (IC50) at KRAS G12S, at NRAS G12C and on NRAS Q61K was 100 to 1000 nM in each case. Further, the half-maximal effective concentration (EC50) in test [1] is less than 5 µM.

Take `CO[C@@H](C)c1ncccc1-c1c2c3cc(ccc3n1CC(F)(F)F)-c1csc(n1)C[C@H](NC(=O)[C@H](C(C)C)N(C)C(=O)N1CCN(C(=O)/C=C/CN(C)C)C3(CC3)C1)C(=O)N1CCC[C@H](N1)C(=O)OCC(C)(C)C2` (atropisomer, axis not shown) [Example A664]: the 50% inhibitory concentration (IC50) on KRAS G12S, on NRAS G12C and on NRAS Q61K was 10 to 100 nM in each case. For the same molecule, in test [1], the half-maximal effective concentration (EC50) is less than 5 µM.

Turning to `C=CC(=O)N1CC(N2CCN(C(=O)N(C)[C@H](C(=O)N[C@H]3Cc4nc(cs4)-c4ccc5c(c4)c(c(-c4cccnc4[C@H](C)OC)n5CC)CC(C)(C)COC(=O)[C@@H]4CCCN(N4)C3=O)C(C)C)CC2)C1` (atropisomer, axis not shown) [Example A668], the IC50 fell in the range of 100 to 1000 nM on KRAS G12S, 10 to 100 nM on NRAS G12C and 10 to 100 nM on NRAS Q61K. The EC50 in test [1] is less than 5 µM.

Regarding `CO[C@@H](C)c1ncccc1-c1c2c3cc(ccc3n1CC(F)(F)F)-c1nc(co1)C[C@H](NC(=O)[C@@H](COC1CN(C(=O)C#CC(C)(C)N(C)C)C1)C(C)C)C(=O)N1CCC[C@H](N1)C(=O)OCC(C)(C)C2` (atropisomer, axis not shown) [Example A674], the figures for the IC50 on KRAS G12S, at NRAS G12C and on NRAS Q61K were more than 10000 nM, 10 to 100 nM and more than 10000 nM, respectively. The EC50 in test [1] was less than 5 µM.

As for `C=CC(=O)N1CC[C@@]2(COCCN2C(=O)N(C)[C@H](C(=O)N[C@H]2Cc3nc(cs3)-c3ccc4c(c3)c(c(-c3cccnc3[C@H](C)OC)n4CC)CC(C)(C)COC(=O)[C@@H]3CCCN(N3)C2=O)C(C)C)C1` (atropisomer, axis not shown) [Example A677], the half-maximal inhibitory concentration (IC50) at KRAS G12S, at NRAS G12C and at NRAS Q61K was 100 to 1000 nM in each case. Besides, the EC50 in test [1] was less than 5 µM.

Take `C=CC(=O)N1CCC2(CC1)CCN2C(=O)N(C)[C@H](C(=O)N[C@H]1Cc2nc(cs2)-c2ccc3c(c2)c(c(-c2cccnc2[C@H](C)OC)n3CC)CC(C)(C)COC(=O)[C@@H]2CCCN(N2)C1=O)C(C)C` (atropisomer, axis not shown) [Example A678]: the IC50 at KRAS G12S lay in the range of 100 to 1000 nM; at NRAS G12C, 10 to 100 nM; on NRAS Q61K, 10 to 100 nM. Also, the half-maximal effective concentration (EC50) in test [1] was less than 5 µM.

Take `CCn1c(-c2cccnc2[C@H](C)OC)c2c3cc(ccc31)-c1csc(n1)C[C@H](NC(=O)[C@H](C(C)C)N(C)C(=O)N1CCC3(CC1)CN(C(=O)/C=C/C(F)F)C3)C(=O)N1CCC[C@H](N1)C(=O)OCC(C)(C)C2` (atropisomer, axis not shown) [Example A683]: the 50% inhibitory concentration (IC50) at KRAS G12S was 100 to 1000 nM; at NRAS G12C, 10 to 100 nM; at NRAS Q61K, 10 to 100 nM. Further, in test [1], the EC50 was less than 5 µM.

Take `C=CC(=O)N1CC[C@H](C(=O)N(C)[C@H](C(=O)N[C@H]2Cc3cccc(c3)-c3ccc4c(c3)c(c(-c3cccnc3[C@H](C)OC)n4CC)CC(C)(C)COC(=O)[C@@H]3CCCN(N3)C2=O)C(C)(C)F)C1` (atropisomer, axis not shown) [Example A693]: the IC50 was 1000 to 10000 nM at KRAS G12S, 100 to 1000 nM on NRAS G12C and 1000 to 10000 nM at NRAS Q61K. Also, the EC50 in test [1] was less than 5 µM.
